In brackets after ≈: the same amount, converted by molar mass.
Tests used:
Salmonella Muenchen = experiment: MIC and MBC dose-response, serotype Muenchen; type: cell-based, Salmonella enterica; conditions: MIC identical to MBC
Protocol: (§1) An overnight Salmonella suspension was normalized at 0.05 OD600 (approximately 3.5×10^7 CFU/ml) with an adjusted M9 minimal broth medium (12.7 mM Na2HPO4 7H2O; 22 mM KH2PO4; 18.7 mM NH4Cl; 2 mM MgSO4; 0.1 mM CaCl2; 0.4% glucose; 0.05% casamino acids). 100 μL of the suspension plus 2 μl of SMs (200 μM) were transferred into each well of a sterile, non-treated, flat bottom 96-well plate. Bacteria alone (negative control, NC), 2% DMSO plus bacteria (DMSO control), 20 μg/ml chloramphenicol or 50 μg/ml kanamycin plus bacteria (positive controls, PC), and M9 medium only were used as control. Plates were incubated in a Sunrise™ Tecan kinetic microplate reader for 12 hrs at 37° C. and the optical density (OD) was measure at 600 nm as described above. Percentage of inhibition=(OD600 SM−OD600 NC)/(OD600 NC)×100. […] Cultures from wells showing no turbidimetric increase were transferred onto a XLT4 agar plate. Plates were incubated at 37° C. for 36 hrs.
(§2) Screens were performed as described in the primary screen. The lowest SM concentration with a static effect was considered as the minimal inhibitory concentration (MIC) and the lowest SM concentration with a cidal effect was considered as the minimal bactericidal concentration (MBC).

[1] = tested on: S. typhimurium cell membrane; experiment: Crystal violet uptake after treatment with lethal dose of SMs; type: cell-based; conditions: 1 hr; for reduction of crystal violet uptake: compared to 1% DMSO control
Protocol: (§3) To further support the observation obtained with confocal microscopy, the same samples were analyzed using scanning electron microscopy (SEM; FIG. 13P-S). […] Smaller outer membrane vesicles of approximately 20 to 70 nm were also observed covering the surface of the bacteria. […] These conclusions were further supported by measuring the crystal violet uptake and leakage of materials assessed at 260 nm after 1 hr of treatment with a lethal dose of SMs.

Salmonella Saint-Paul = experiment: MIC and MBC dose-response, serotype Saint-Paul; type: cell-based; conditions: MIC identical to MBC
Protocol: as §1, §2

[2] = tested on: Galleria mellonella larvae; experiment: Toxicity on Galleria mellonella larva; type: in vivo; conditions: over 72 HPI, single treatment with 12.5 μg per larva
Protocol: Toxicity of the selected four SMs on Galleria mellonella larva: Galleria mellonella larvae (fifth instar stage) were incubated for 12 hrs at 37° C. in the dark. After incubation, only larvae with a white phenotype and a body weight ranging between 225 mg to 275 mg were selected for the injection. Fifteen larvae per group were inoculated in one of the last pro-leg with 12.5 μg of SMs (8.5 μl) using a PB600-1 repeating dispenser (Hamilton, Reno, NV) attached to 300 μl insulin syringe, 31-gauge, 8 mm needle length (ReliOn®, Bentonville, AR). SMs were diluted into a buffer mix (30% DMSO plus 10 mM MgSO4). Larvae were placed inside a plastic petri dish and incubated for 3 days in the dark at 37° C. Every 12 hrs of interval, the larva survival was monitored. Non-treated larvae, larvae treated with the buffer mix, and larvae treated with 12.5 μg of chloramphenicol were used as control. At least two independent experiments were conducted.

S. typhimurium WT = experiment: High-throughput primary screen for S. typhimurium growth inhibitors at 200 μM; type: cell-based, Salmonella enterica subsp. enterica serovar Typhimurium LT2; conditions: adjusted M9 minimal broth, 12 hrs, 37° C., bactericidal = 100% growth inhibition and no growth on XLT4 agar, bacteriostatic = 100% growth inhibition but growth on XLT4 agar
Protocol: Identification of S. typhimurium growth inhibitors: The 4182 small molecules (SMs) were screened at 200 μM against S. typhimurium WT using HTS assay in a 96-well plate format. An overnight Salmonella suspension was normalized at 0.05 OD600 (approximately 3.5×10^7 CFU/ml) with an adjusted M9 minimal broth medium (12.7 mM Na2HPO4 7H2O; 22 mM KH2PO4; 18.7 mM NH4Cl; 2 mM MgSO4; 0.1 mM CaCl2; 0.4% glucose; 0.05% casamino acids). 100 μL of the suspension plus 2 μl of SMs (200 μM) were transferred into each well of a sterile, non-treated, flat bottom 96-well plate. Bacteria alone (negative control, NC), 2% DMSO plus bacteria (DMSO control), 20 μg/ml chloramphenicol or 50 μg/ml kanamycin plus bacteria (positive controls, PC), and M9 medium only were used as control. Plates were incubated in a Sunrise™ Tecan kinetic microplate reader for 12 hrs at 37° C. and the optical density (OD) was measure at 600 nm as described above. Percentage of inhibition=[…]. SMs were identified as growth inhibitors if their inhibition value after incubation was above 20% (value representing the inhibition level monitored with the DMSO controls). Cultures from wells showing no turbidimetric increase were transferred onto a XLT4 agar plate. Plates were incubated at 37° C. for 36 hrs.

Kan^R S. typhimurium = experiment: Salmonella clearance in one-week-old infected broiler chickens; type: in vivo; conditions: 100 μg orally twice daily for 5 days; for reduction in Salmonella population inside the ceca: compared to DMSO group; for Chicken tissues positive for Salmonella: Ceca / Chicken tissues positive for Salmonella: Livers / Chicken tissues positive for Salmonella: Spleens: n = 10
Protocol: FIG. 7. Experimental design of the Salmonella clearance study in one-week-old infected broiler chickens. Salmonella-free chickens were orally infected with 10^4 S. typhimurium units per chickens (0 DPI). After confirmation of the intestinal colonization by Salmonella (1 DPI), ten chicks per treatment were treated twice a day for five days with 100 μg of SMs (3 DPI to 7 DPI). Ceca, liver, and spleen tissues were collected at 8 DPI. DPI: days post-inoculation.
Effect of selected SMs on the survival of S. typhimurium in one-week-old SFP chickens: One-week-old Salmonella-free chickens were orally inoculated with approximately 10^4 Kan^R S. typhimurium bacteria. A rectal swab was collected to confirm the intestinal colonization by Salmonella at one day post-inoculation (DPI). At 3 DPI, chickens were treated orally twice a day for five days with a specific treatment of approximately 920 μg/kg SMs per dose. Details of the treatment groups are described in Table 7. Feeders were taken off one hour before the treatment and put back one hour after the treatment. Following the five days of treatment, chickens were euthanized and tissues were aseptically collected (ceca, liver, and spleen). One of the cecum was immediately stored at −80° C. after sampling for microbiota studies. Ceca, spleens, and livers tissues were suspended in 2, 3, and 5 mL of 1×PBS respectively and grinded. 1 mL of the undiluted homogenized tissue mix was enriched in 9 mL of tetrathionate broth (TTB) medium for 18 hrs at 37° C. The rest of the homogenized tissues were serial ten-fold diluted, plated on XLT4 agar plate supplemented with 50 μg/ml kanamycin, and incubated for 36 hrs at 37° C. Bacterial counts were compared with the DMSO control group.

[3] = tested on: S. typhimurium cell membrane; experiment: Leakage of 260 nm-absorbing material after treatment with lethal dose of SMs; type: cell-based; conditions: 1 hr, compared to 1% DMSO control
Protocol: as §3

CC1CCC(C(C)C)C(OC(=O)Cn2c[n+](CC(=O)OC3CC(C)CCC3C(C)C)c3ccccc32)C1.[Cl-] (centres unmarked) [SM1, 1,3-bis{2-[(2-isopropyl-5-methylcyclohexyl)oxy]-2-oxoethyl}-1H-3,1-benzimidazol-3-ium chloride]
MIC/MBC (Salmonella Muenchen): 100 µM | reduction of crystal violet uptake [1]: 1.88 fold | MIC/MBC (Salmonella Saint-Paul): 100 µM | lethal effect in G. mellonella larvae [2]: chronic death of the larvae over time | Effect on S. Typhimurium at 200 μM (S. typhimurium WT): Bactericidal | reduction in Salmonella population inside the ceca (Kan^R S. typhimurium): did not show any reduction | Chicken tissues positive for Salmonella: Ceca (Kan^R S. typhimurium): 90% | Chicken tissues positive for Salmonella: Livers (Kan^R S. typhimurium): 40% | Chicken tissues positive for Salmonella: Spleens (Kan^R S. typhimurium): 50% | increase in 260 nm-absorbing material [3]: 2.18 fold

CCCCCCCCCCCCCCCC[n+]1ccn(CC#N)c1.[Cl-] [SM3, 1-(cyanomethyl)-3-hexadecyl-1H-imidazol-3-ium chloride]
MIC/MBC (Salmonella Muenchen): 50 µM | reduction of crystal violet uptake [1]: 4.46 fold | MIC/MBC (Salmonella Saint-Paul): 50 µM | lethal effect in G. mellonella larvae [2]: killed only a few larvae | Effect on S. Typhimurium at 200 μM (S. typhimurium WT): Bactericidal | reduction in Salmonella population inside the ceca (Kan^R S. typhimurium): did not show any reduction | Chicken tissues positive for Salmonella: Ceca (Kan^R S. typhimurium): 80% | Chicken tissues positive for Salmonella: Livers (Kan^R S. typhimurium): 60% | Chicken tissues positive for Salmonella: Spleens (Kan^R S. typhimurium): 50% | increase in 260 nm-absorbing material [3]: 7.17 fold

CCCCCCCCCCCCCCCCn1c[n+](C)c2ccccc21.[Br-] [SM4, 1-hexadecyl-3-methyl-1H-3,1-benzimidazol-3-ium bromide]
MIC/MBC (Salmonella Muenchen): 25 µM | reduction of crystal violet uptake [1]: 2.01 fold | MIC/MBC (Salmonella Saint-Paul): 10 µM | lethal effect in G. mellonella larvae [2]: no lethal effect | Effect on S. Typhimurium at 200 μM (S. typhimurium WT): Bactericidal | Chicken tissues positive for Salmonella: Ceca (Kan^R S. typhimurium): 40% | Chicken tissues positive for Salmonella: Livers (Kan^R S. typhimurium): 30% | Chicken tissues positive for Salmonella: Spleens (Kan^R S. typhimurium): 20% | increase in 260 nm-absorbing material [3]: 15.95 fold

CCOc1cc(/C=N/N=C(N)N)ccc1OCc1ccc(Cl)cc1 [SM5, N″-{4-[(4-chlorobenzyl)oxy]-3-ethoxybenzylidene}carbonohydrazonic diamide]
MIC/MBC (Salmonella Muenchen): 50 µM (≈ 17.3 µg/mL) | increase in permeability (crystal violet uptake) ([1]; compared to 1% DMSO-treated cells): 2.32 fold | MIC/MBC (Salmonella Saint-Paul): 50 µM (≈ 17.3 µg/mL) | lethal effect in G. mellonella larvae [2]: killed only a few larvae | Effect on S. Typhimurium at 200 μM (S. typhimurium WT): Bactericidal | Chicken tissues positive for Salmonella: Ceca (Kan^R S. typhimurium): 70% | Chicken tissues positive for Salmonella: Livers (Kan^R S. typhimurium): 40% | Chicken tissues positive for Salmonella: Spleens (Kan^R S. typhimurium): 30% | increase in 260 nm-absorbing material [3]: 5.25 fold
